Legend:
SpCas9 = SpCas9 (Streptococcus pyogenes serotype M1, UniProt Q99ZW2); test: Cas9 nuclease activity in EGFP disruption assay (U2OS.eGFP.PEST cells); assay type: cell-based; parameters: host or cells: U2OS.eGFP-PEST; settings: 10, 15, 20 μM, 24 h
Procedure: (§1) Cas9 Nuclease activity in EGFP disruption assay. Approximately 200,000 U2OS.eGFP-PEST cells were nucleofected with 400 ng of SpCas9 (Addgene Plasmid #43861) and 40 ng of sgRNA (pFYF1320 EGFP Site #1, Addgene Plasmid #47511) expressing plasmids along with a Td-tomato-encoding plasmid using the SE Cell Line 4D-Nucleofector™ X Kit (Lonza) according to the manufacturer's protocol. Approximately 20,000 transfected cells/well in 3 replicates were plated in a 96-well plate (Corning® 3904). Cells were allowed to grow in the indicated amount of compound or DMSO for 24 h post transfection. Cells were then fixed using 4% paraformaldehyde and imaged with the HCS NuclearMask™ Blue Stain (Life Technologies) as the nuclear counter-staining agent. Imaging was performed with an IXM 137204 ImageXpress Automated High Content Microscope (Molecular Devices) at 10× magnification under three excitation channels (blue, green and red) with 9 acquiring sites per well. Images were analyzed in the MetaXpress software and data were plotted using GraphPad Prism 6. The Z′-value was calculated following the formula: […]
Cas9 Nuclease activity in EGFP disruption assay. In some embodiments, a quantitative human cell-based reporter assay that enables rapid quantitation of targeted nuclease activities is used to characterize off-target cleavage of CRISPR protein-based RNA guided endonucleases. In this assay, the activities of nucleases targeted to a single integrated EGFP reporter gene can be quantified by assessing loss of fluorescence signal in human U2OS.EGFP cells caused by inactivating frameshift insertion/deletion (indel) mutations introduced by error prone non-homologous end-joining (NHEJ) repair of nuclease-induced double-stranded breaks (DSBs).
as §1, with “Approximately” for “Cas9 Nuclease activity in EGFP disruption assay. Approximately”

SpCas9:gRNA complex = target: T1, SpCas9:gRNA complex (Streptococcus pyogenes serotype M1, UniProt Q99ZW2); test: Bio-Layer Interferometry (BLI) of biotinylated compound with SpCas9:gRNA complex; assay type: binding
T1 construct: His6 (N, cleaved yes); made in house; host or cells: E. coli BL21 Star (DE3)
T1 sequence (Q99ZW2 whole entry, one chain of several): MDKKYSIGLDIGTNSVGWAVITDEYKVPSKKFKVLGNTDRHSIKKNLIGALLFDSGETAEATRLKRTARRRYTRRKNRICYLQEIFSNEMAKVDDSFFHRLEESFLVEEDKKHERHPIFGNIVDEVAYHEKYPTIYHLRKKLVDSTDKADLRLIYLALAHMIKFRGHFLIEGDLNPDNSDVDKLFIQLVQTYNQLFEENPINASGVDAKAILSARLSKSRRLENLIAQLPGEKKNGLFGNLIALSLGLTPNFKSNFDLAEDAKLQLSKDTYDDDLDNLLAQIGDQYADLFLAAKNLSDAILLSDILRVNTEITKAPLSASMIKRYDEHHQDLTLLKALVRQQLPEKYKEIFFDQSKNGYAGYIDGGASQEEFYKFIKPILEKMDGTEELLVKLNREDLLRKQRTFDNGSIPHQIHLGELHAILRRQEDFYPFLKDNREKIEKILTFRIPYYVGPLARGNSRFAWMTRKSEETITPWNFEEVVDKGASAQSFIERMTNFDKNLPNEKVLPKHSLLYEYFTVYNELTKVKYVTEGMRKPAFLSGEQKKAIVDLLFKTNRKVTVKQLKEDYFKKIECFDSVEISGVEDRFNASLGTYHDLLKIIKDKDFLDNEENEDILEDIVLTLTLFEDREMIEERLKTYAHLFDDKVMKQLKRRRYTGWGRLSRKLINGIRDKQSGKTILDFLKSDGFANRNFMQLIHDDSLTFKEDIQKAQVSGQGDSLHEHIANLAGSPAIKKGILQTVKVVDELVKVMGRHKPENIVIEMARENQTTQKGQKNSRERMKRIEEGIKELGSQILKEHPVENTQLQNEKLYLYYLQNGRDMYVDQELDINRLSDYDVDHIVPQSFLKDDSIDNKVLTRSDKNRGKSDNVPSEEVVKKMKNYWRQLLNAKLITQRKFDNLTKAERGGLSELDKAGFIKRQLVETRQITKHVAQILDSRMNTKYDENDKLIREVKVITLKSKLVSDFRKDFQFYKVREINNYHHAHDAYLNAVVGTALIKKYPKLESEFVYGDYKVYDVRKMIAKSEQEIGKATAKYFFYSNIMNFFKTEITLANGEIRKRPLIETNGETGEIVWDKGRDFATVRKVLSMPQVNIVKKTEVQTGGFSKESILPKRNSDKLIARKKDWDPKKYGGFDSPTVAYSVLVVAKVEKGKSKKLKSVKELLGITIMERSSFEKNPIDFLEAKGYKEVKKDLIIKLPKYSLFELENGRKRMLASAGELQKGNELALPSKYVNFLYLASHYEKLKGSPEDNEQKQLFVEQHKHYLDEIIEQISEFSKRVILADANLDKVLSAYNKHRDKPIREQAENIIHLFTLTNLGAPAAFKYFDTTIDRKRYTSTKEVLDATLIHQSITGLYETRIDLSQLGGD
Procedure: Compound-Cas9 interaction in BLI. The experiments were performed in a 96-well format with 180 μL reaction volume using biotinylated compound BRD7087-Biotin and streptavidin sensors. 1 μM of the biotinylated compound was loaded onto the sensors for 180 s in 20 mM Tris buffer of pH 7.4, 100 mM KCl, 5 mM MgCl2, 1 mM DTT, 0.01% Tween®. The compound loaded sensors were then allowed to associate with the different concentration of SpCas9:gRNA complex (1-0.15 μM) for 300 s followed by dissociation in the reaction buffer. Reference sensor was loaded with compound and allowed to associate and dissociate in the reaction buffer alone. The response curves were fitted with a 2:1 stoichiometric model and a global fit steady-state analysis were performed using manufacturer inbuilt protocol. The experiment was performed in three replicates.
The competitive experiments were performed using Biotin-linker fragment. In this experiment, streptavidin sensors were pre-incubated with 10 μM of Biotin-linker before dipping into a solution of either 1 μM BRD7087-Biotin or reaction buffer alone. Sensors were then allowed to associate with different concentration of SpCas9:gRNA complex or buffer alone.
Compound-Cas9 interaction in BLL The experiments were performed in a 96-well format with 180 μL reaction volume using biotinylated compound BRD7087-Biotin and streptavidin sensors. […]

SpCas9, sequence (Q99ZW2 whole entry): as the sequence (Q99ZW2 whole entry, one chain of several) above

Compound	potency of stereoisomers in EGFP-disruption assay compared with the parent (3aR,4S,9bR) compound (SpCas9)	Kd (SpCas9:gRNA complex; 1 μM BRD7087-Biotin on streptavidin sensors, SpCas9:gRNA 1-0.15 μM, read-out: dissociation constant (2:1 compound to Cas9 binding isotherm))	BLI response signal in competitive experiment (SpCas9:gRNA complex; excess (10×) of biotin to compound loading)
OC[C@H]1Nc2ccc(-c3cccc(F)c3)cc2[C@@H]2[C@H]1CCN2Cc1ccncc1 [BRD0750, ((3aS,4S,9bS)-8-(3-Fluorophenyl)-1-(pyridin-4-ylmethyl)-2,3,3a,4,5,9b-hexahydro-1H-pyrrolo[3,2-c]quinolin-4-yl)methanol]	less potent	–	–
OC[C@@H]1Nc2ccc(-c3cccc(F)c3)cc2[C@H]2[C@@H]1CCN2Cc1ccncc1 [BRD2161, ((3aR,4R,9bR)-8-(3-Fluorophenyl)-1-(pyridin-4-ylmethyl)-2,3,3a,4,5,9b-hexahydro-1H-pyrrolo[3,2-c]quinolin-4-yl)methanol]	less potent	–	–
OC[C@@H]1Nc2ccc(-c3cccc(F)c3)cc2[C@@H]2[C@H]1CCN2Cc1ccncc1 [BRD5039, ((3aS,4R,9bS)-8-(3-Fluorophenyl)-1-(pyridin-4-ylmethyl)-2,3,3a,4,5,9b-hexahydro-1H-pyrrolo[3,2-c]quinolin-4-yl)methanol]	equipotent as BRD7087	–	–
O=C(CCCC[C@@H]1SC[C@@H]2NC(=O)N[C@@H]21)NCCOCCOCCOCCC(=O)Nc1cccc(-c2ccc3c(c2)[C@H]2[C@H](CCN2Cc2ccncc2)[C@@H](CO)N3)c1 [biotin-conjugate of BRD7087, N-(2-(2-(2-(3-((3-((3aR,4S,9bR)-4-(Hydroxymethyl)-1-(pyridin-4-ylmethyl)-2,3,3a,4,5,9b-hexahydro-1H-pyrrolo[3,2-c]quinolin-8-yl)phenyl)amino)-3-oxopropoxy)ethoxy)ethoxy)ethyl)-5-((3aS,4S,6aR)-2-oxohexahydro-1H-thieno[3,4-d]imidazol-4-yl)pentanamide]	–	~0.16 µM	no substantial response signal
